Test results: patent US20030044399A1, “Method of treatment” (SmithKline Beecham Corporation, priority 1998, published 2003)

What was measured:
Schisto B 2 = Schisto B 2 (Schistosoma mansoni, UniProt Q95PM1); assay: Cysteine protease inhibition, progress curve method, schistosoma B 2; format: biochemical; conditions: 10 uM Cbz-Phe-Arg-AMC, 100 mM Na acetate pH 5.5, 5 mM cysteine
Protocol: (§1) Standard assay conditions for the determination of kinetic constants used 10 uM fluorogenic peptide substrate, Cbz-Phe-Arg-AMC for the cysteine proteases from Leishmania spp and Schistosoma Mansoni, Cbz-Leu-Arg-AMC for the cysteine proteases from Plasmodium falciparum and Trypanosoma brucei rhodesiensi, and Ac-Lys-Glu-Lys-Leu-Arg-AMC (4 uM final substrate concentration) for the cysteine protease from Trypoanosoma cruzi, and were determined in 100 mM Na acetate at pH 5.5 containing 5 mM cysteine. Stock substrate solutions were prepared at concentrations of […] in DMSO with 10 uM (4 uM for Ac-Lys-Glu-Lys-Leu-Arg-AMC) final substrate concentration in the assays. The final DMSO concentration was 2% and the final volume was 100 uL. All assays were conducted at ambient temperature. Product progress curves were generated over 20 to 30 minutes following formation of AMC product.
(§2) Potential inhibitors were evaluated using the progress curve method. Assays were carried out in the presence of variable concentrations of test compound. Reactions were initiated by addition of enzyme to buffered solutions of inhibitor and substrate. Data analysis was conducted according to one of two procedures depending on the appearance of the progress curves in the presence of inhibitors. For those compounds whose progress curves were linear, apparent inhibition constants (Ki,app) were calculated according to equation 1 (Brandt et al., Biochemitsry, 1989, 28, 140):
(§3) v=VmA/[Ka(1+I/Ki,app)+A] (1)
(§4) Where v is the velocity of the reaction with maximal velocity Vm, A is the concentration of substrate with Michaelis constant of Ka, and I is the concentration of inhibitor.
(§5) [AMC]=vsst+(v0−vss)[1−exp (−kobst)]/kobs (2)
(§6) Where [AMC] is the concentration of product formed over time t, v0 is the initial reaction velocity and vss is the final steady state rate. Values for kobs were then analyzed as a linear function of inhibitor concentration to generate an apparent second order rate constant (kobs/inhibitor concentration or kobs/[I]) describing the time-dependent inhibition. A complete discussion of this kinetic treatment has been fully described (Morrison et al., Adv. Enzymol. Relat. Areas Mol. Biol., 1988, 61, 201).
(§7) Exemplary inhibition data for the compounds used in the present method collected in accordance with the above-described procedure are listed in Table I.

Schisto B 1 = Schisto B 1 (Schistosoma mansoni, UniProt P25792); assay: Cysteine protease inhibition, progress curve method, schistosoma B 1; format: biochemical; conditions: 10 uM Cbz-Phe-Arg-AMC, 100 mM Na acetate pH 5.5, 5 mM cysteine; read-out: Schisto B 1 Ki
Protocol: as §1, §2, §3, §4, §5, §6, §7

Rhodazain = Rhodazain (Trypanosoma brucei rhodesiense, UniProt Q95PM0); assay: Cysteine protease inhibition, progress curve method, rhodazain; format: biochemical, Trypanosoma brucei rhodesiensi; conditions: Rhodazain Ki (nM), 10 uM Cbz-Leu-Arg-AMC, 100 mM Na acetate pH 5.5, 5 mM cysteine
Leishmania B = molecular target: T1, Leishmania B (UniProt P90627); assay: Cysteine protease inhibition, progress curve method, leishmania B; format: biochemical, Leishmania spp; conditions: read-out: Leishmania B Ki nM; 10 uM Cbz-Phe-Arg-AMC, 100 mM Na acetate pH 5.5, 5 mM cysteine
T1 sequence (P90627 1-340): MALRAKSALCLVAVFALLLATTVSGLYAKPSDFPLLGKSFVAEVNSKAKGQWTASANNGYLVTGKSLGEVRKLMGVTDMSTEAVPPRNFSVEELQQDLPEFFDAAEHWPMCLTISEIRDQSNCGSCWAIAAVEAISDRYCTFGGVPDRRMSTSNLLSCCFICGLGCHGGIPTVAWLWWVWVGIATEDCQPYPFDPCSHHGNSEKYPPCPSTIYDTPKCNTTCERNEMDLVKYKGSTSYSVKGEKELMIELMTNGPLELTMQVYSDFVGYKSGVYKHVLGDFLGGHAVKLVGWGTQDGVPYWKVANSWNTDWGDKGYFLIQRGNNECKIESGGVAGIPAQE
Protocol: as §1, §2, §3, §4, §5, §6, §7

Leishmania L = Leishmania L (Leishmania major, UniProt P90628); assay: Cysteine protease inhibition, progress curve method, leishmania L; format: biochemical, Leishmania spp; conditions: 10 uM Cbz-Phe-Arg-AMC, 100 mM Na acetate pH 5.5, 5 mM cysteine
Protocol: as §1, with “Product progress curves were generated over 20 to 30 minutes following formation of AMC product.” left out
Potential inhibitors were evaluated using the progress curve method. […] For those compounds whose progress curves were linear, apparent inhibition constants (Ki,app) were calculated according to equation 1 (Brandt et al., Biochemitsry, 1989, 28, 140): […]
as §6, with “A complete discussion of this kinetic treatment has been fully described (Morrison et al., Adv. Enzymol. Relat. Areas Mol. Biol., 1988, 61, 201).” left out

Cruzain = Cruzain (Trypanosoma cruzi, UniProt P25779); assay: Cysteine protease inhibition, progress curve method, cruzain; format: biochemical; conditions: 4 uM Ac-Lys-Glu-Lys-Leu-Arg-AMC, 100 mM Na acetate pH 5.5, 5 mM cysteine; read-out: Cruzain Ki
Summary of the method: (§8)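 Kinetic constants from AMC-release progress curves over 20–30 min at ambient temperature in 100 mM Na acetate pH 5.5, 5 mM cysteine, 2% DMSO; enzyme added last to inhibitor plus substrate. Substrates: 10 uM Cbz-Phe-Arg-AMC (Leishmania, Schistosoma), 10 uM Cbz-Leu-Arg-AMC (falcipain), 4 uM Ac-Lys-Glu-Lys-Leu-Arg-AMC (cruzain). Ki,app from linear curves; time-dependent inhibition as kobs/[I].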

Falcipain 2 = Falcipain 2 (Plasmodium falciparum, UniProt Q8I6U4); assay: Cysteine protease inhibition, progress curve method, falcipain; format: biochemical; conditions: 10 uM Cbz-Leu-Arg-AMC, 100 mM Na acetate pH 5.5, 5 mM cysteine
Summary of the method: as §8

Sequence of Schisto B 1 (P25792 89-340): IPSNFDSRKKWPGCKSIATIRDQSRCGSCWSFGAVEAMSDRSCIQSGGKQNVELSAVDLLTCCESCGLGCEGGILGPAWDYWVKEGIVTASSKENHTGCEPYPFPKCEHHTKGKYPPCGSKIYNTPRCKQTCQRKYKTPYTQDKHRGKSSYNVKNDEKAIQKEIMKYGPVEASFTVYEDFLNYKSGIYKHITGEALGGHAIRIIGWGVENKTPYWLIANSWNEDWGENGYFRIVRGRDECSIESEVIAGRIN
Sequence of Cruzain (P25779 123-337): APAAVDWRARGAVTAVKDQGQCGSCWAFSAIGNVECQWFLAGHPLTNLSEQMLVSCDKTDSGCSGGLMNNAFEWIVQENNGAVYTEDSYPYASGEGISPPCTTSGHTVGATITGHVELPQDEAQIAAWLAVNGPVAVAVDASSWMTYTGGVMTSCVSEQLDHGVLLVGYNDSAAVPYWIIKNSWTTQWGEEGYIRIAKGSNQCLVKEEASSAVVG
Sequence of Schisto B 2 (Q95PM1 entry or part of it): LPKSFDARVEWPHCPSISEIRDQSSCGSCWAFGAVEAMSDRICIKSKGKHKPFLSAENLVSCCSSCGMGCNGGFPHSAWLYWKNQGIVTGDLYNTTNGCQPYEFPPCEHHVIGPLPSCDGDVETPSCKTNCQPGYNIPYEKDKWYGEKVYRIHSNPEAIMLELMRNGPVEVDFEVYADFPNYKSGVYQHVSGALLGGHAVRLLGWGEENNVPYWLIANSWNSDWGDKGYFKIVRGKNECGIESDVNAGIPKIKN
Sequence of Rhodazain (Q95PM0 entry or part of it): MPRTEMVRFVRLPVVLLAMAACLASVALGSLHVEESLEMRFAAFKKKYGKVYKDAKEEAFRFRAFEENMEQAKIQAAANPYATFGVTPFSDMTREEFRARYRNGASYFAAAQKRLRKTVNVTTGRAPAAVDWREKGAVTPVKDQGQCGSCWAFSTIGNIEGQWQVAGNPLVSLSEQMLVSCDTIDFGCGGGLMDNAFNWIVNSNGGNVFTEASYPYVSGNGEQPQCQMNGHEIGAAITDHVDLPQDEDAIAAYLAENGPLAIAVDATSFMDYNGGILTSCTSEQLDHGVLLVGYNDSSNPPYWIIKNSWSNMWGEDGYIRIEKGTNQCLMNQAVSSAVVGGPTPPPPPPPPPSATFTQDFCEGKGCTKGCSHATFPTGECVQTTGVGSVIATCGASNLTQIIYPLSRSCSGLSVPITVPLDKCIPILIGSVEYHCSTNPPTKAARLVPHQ
Sequence of Leishmania L (P90628 126-443): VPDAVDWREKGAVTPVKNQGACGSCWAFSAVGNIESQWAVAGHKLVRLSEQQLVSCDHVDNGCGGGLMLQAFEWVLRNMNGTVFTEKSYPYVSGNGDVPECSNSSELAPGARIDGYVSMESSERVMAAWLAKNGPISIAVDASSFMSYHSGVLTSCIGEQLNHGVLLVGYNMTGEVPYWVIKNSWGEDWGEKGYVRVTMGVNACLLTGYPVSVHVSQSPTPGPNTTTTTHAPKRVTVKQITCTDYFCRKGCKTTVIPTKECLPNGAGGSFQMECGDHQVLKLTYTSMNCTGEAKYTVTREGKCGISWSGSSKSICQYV
Sequence of Falcipain 2 (Q8I6U4 244-484): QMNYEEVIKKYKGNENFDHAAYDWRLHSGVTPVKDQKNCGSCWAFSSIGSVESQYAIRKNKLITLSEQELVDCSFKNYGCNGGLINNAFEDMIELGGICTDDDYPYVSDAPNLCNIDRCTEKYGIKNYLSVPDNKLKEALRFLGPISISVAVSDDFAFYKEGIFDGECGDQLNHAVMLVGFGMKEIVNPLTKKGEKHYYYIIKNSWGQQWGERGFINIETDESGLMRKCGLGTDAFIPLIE

Row | Compound | Ki (Schisto B 2) [µM] | Ki (Schisto B 1) [µM] | Ki (Rhodazain) [nM] | Ki (Leishmania B) [nM] | Ki (Leishmania L) [µM] | Ki (Cruzain) [µM] | Ki (Falcipain 2) [µM]
1 | O=C(N[C@@H](Cc1ccc2ccccc2c1)C(=O)NC1CCCN(S(=O)(=O)c2ccccn2)CC1=O)c1cccc2ccccc12 (stereo partly drawn) [Example 175, Naphthalene-1-carboxylic acid {(S)-2-naphthalen-2-yl-1-[3-oxo-1-(pyridine-2-sulfonyl)-azepan-4-ylcarbamoyl)-ethyl]-amide] | 0.021 | 0.037 | 5.6 | 1.7 |  |  | 
2 | CC(C)C[C@H](NC(=O)c1cc2ccccc2s1)C(=O)N[C@H]1CCCN(S(=O)(=O)c2ccc(Cl)cc2)CC1=O [Example 135, Benzo[b]thiophene-2-carboxylic acid-{(S)-1-[1-(4-chloro-benzenesulfonyl)-3-oxo-azepan-4-ylcarbamoyl]-3-methyl-butyl}-amide] | 0.27 | 0.075 |  | 8 |  |  | 
3 | Naphthlene-2-carboxylic acid ((S)-3-methyl-1-{3-oxo-1-[2-(3-pyridin-2-yl-phenyl)ethyl]-azepan-4-ylcarbamoyl}-butyl)amide [Example 10] |  |  |  |  | 0.082 |  | 
4 | O=C(N[C@@H](Cc1ccc2ccccc2c1)C(=O)NC1CCCN(S(=O)(=O)c2ccccn2)CC1=O)c1cccc2cccnc12 (stereo partly drawn) [Example 174, Quinoline-8-carboxylic acid {(S)-2-naphthalen-2-yl-1-[3-oxo-1-(pyridine-2-sulfonyl)-azepan-4-ylcarbamoyl)-ethyl]-amide] | 0.0083 | 0.027 | 4.7 | 1.7 |  |  | 
5 | CC(C)C[C@H](NC(=O)c1cc2ccccc2o1)C(=O)N[C@H]1CCCN(S(=O)(=O)c2ccc(Cl)cc2)CC1=O [Example 131, Benzofuran-2-carboxylic acid {(S)-1-[1-(4-chloro-benzenesulfonyl)-3-oxo-azepan-4-ylcarbamoyl]-3-methyl-butyl}-amide] | 0.3 | 0.075 |  | 11 |  |  | 
6 | CC(C)C[C@H](NC(=O)c1cc2ccccc2s1)C(=O)N[C@@H]1CCCN(S(=O)(=O)c2ccc(F)cc2)CC1=O [Example 108, Benzo[b]thiophene-2-carboxylic acid-{(S)-1-[1-(4-fluoro-benzenesulfonyl)-3-oxo-azepan-4-ylcarbamoyl]-3-methyl-butyl}-amide] | 0.11 | 0.034 |  | 9.4 |  | 0.02 | 
7 | COc1ccc2oc(C(=O)N[C@@H](CC(C)C)C(=O)N[C@H]3CCCN(S(=O)(=O)c4cccc(Cl)c4)CC3=O)cc2c1 [Example 89, 5-Methoxy-benzofuran-2-carboxylic acid-{(S)-1-[1-(3-chloro-benzenesulfonyl)-3-oxo-azepan-4-ylcarbamoyl]-3-methyl-butyl}-amide] | 0.13 | 0.034 |  | 24 |  | 0.011 | 
8 | O=C(N[C@@H](Cc1ccc2ccccc2c1)C(=O)NC1CCCN(S(=O)(=O)c2ccccn2)CC1=O)c1cccc2ccccc12 (single isomer, unassigned) [Example 188] | 0.022 | 0.024 | 4 | 2.8 |  |  | 
9 | CC(C)C[C@H](NC(=O)c1cc2sccc2s1)C(=O)N[C@H]1C[C@H](C)CN(S(=O)(=O)c2ccccn2)CC1=O [Example 200, Thieno[3,2-]thiophene-2-carboxylic acid {(S)-3-methyl-1-[6-methyl-3-oxo-1-(pyridine-2-sulfonyl)-azepan-4-ylcarbamoyl]-butyl}-amide] | 0.065 | 0.063 | 2.3 | 4.7 |  | 0.0027 | 0.0041
10 | COc1ccc2oc(C(=O)N[C@@H](CC(C)C)C(=O)N[C@H]3CCCN(S(=O)(=O)c4ccc(Cl)cc4)CC3=O)cc2c1 [Example 132, 5-Methoxy-benzofuran-2-carboxylic acid {(S)-1-[1-(4-chloro-benzenesulfonyl)-3-oxo-azepan-4-ylcarbamoyl]-3-methyl-butyl}-amide] | 0.88 | 0.15 |  | 8.1 |  |  | 
11 | Cc1c(C(=O)N[C@@H](CC(C)C)C(=O)N[C@H]2CCCN(S(=O)(=O)c3cccc(Cl)c3)CC2=O)oc2ccccc12 [Example 90, 3-Methyl-benzofuran-2-carboxylic acid-{(S)-1-[1-(3-chloro-benzenesulfonyl)-3-oxo-azepan-4-ylcarbamoyl]-3-methyl-butyl}-amide] | 0.071 | 0.048 |  | 3.3 |  |  | 
12 | CC(C)CC(NC(=O)c1cc2ccccc2o1)C(=O)NC1CC[C@@H](C)N(S(=O)(=O)c2ccccn2)CC1=O (single isomer, unassigned) [Example 182] | 0.045 | 0.061 | 1.1 | 4.3 |  |  | 
